IC50 data for 24 compounds are collected here from US12624018B1, “Inhibitors of RIPK2 and medical uses thereof” (Odyssey Therapeutics, Inc., priority 2022, dated 2026).

A word on the IC50: it is the concentration needed to halve the response being measured.

The target of the assay is T1, RIPK2 enzyme (Homo sapiens, UniProt O43353).
T1 construct: purchased Carna 09-128
T1 sequence (O43353 1-299 limits assumed): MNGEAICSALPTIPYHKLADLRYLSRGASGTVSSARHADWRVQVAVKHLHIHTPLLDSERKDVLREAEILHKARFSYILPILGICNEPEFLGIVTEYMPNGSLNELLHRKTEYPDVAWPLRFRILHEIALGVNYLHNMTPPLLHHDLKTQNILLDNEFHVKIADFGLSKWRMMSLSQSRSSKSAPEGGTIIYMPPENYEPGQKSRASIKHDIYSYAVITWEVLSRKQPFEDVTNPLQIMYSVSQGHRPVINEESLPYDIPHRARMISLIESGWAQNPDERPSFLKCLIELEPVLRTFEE
Kind of assay: RIPK2 inhibition (ADP-Glo Kinase Assay). Type of assay: biochemical. The following applies: RIPK2 5 nM, ATP 150 μM, MBP substrate, read-out: RIPK2 IC50. The procedure: RIPK2 inhibition was measured as follows:
The V9102 ADP-Glo Kinase Assay (including ultrapure ATP, 10 mM) was purchased from Promega. Native swine MBP was used as the substrate for the reaction and was purchased from SignalChem Biotech (catalogue number M42-51N). Assay buffer used for the assay consisted of the following components: MgCl2 (final concentration of 10 mM), Brij-35 (0.01%), DTT (final concentration of 2 mM), BSA (0.05%), EGTA (final concentration of 1 mM), and HEPE (pH 7.5 at final concentration of 50 mM).
Method: In a 384 well plate, 10 nL of test compound was dispensed using Echo550 and mixed with RIPK2 enzyme (final concentration of 5 nM) in assay buffer for 30 minutes at room temperature. […] Then ADP-Glo reagent was added and incubated for 60 min at room temperature. Last, Kinase Detection Reagent was added to the mixture and incubated for 60 min. The resulting luminescent signal was measured with an Envision reader to determine the amount of ADP produced. All plates contained vehicle controls (10 nL DMSO only) as a reference for the high control (0% kinase inhibition), and wells with no RIPK2 enzyme as reference for low control (100% kinase inhibition). Data were analyzed to determine the percent inhibition of ADP production in the presence of test compound using both low and high controls.
(ADP-Glo turns the ADP formed in a reaction into a luminescent signal.)
On to `Cc1cc(CC(=O)Nc2cnn(C(C)(C)C)c2)ccc1Oc1ccnc2ccc(S(=O)(=O)C3CC(N)C3)cc12` (single isomer, unassigned) [Compound 282, 2-(4-((6-((-3-aminocyclobutyl)sulfonyl)quinolin-4-yl)oxy)-3-methylphenyl)-N-(1-(tert-butyl)-1H-pyrazol-4-yl)acetamide], for which the IC50 is below 2.5 nM.
For `Cc1cc(CC(=O)Nc2cnn(C(C)(C)C)c2)ccc1Oc1ccnc2ccc(S(=O)(=O)C3CC(N)C3)cc12` (single isomer, unassigned) [Compound 283, 2-(4-((6-((-3-aminocyclobutyl)sulfonyl)quinolin-4-yl)oxy)-3-methylphenyl)-N-(1-(tert-butyl)-1H-pyrazol-4-yl)acetamide], the IC50 is below 2.5 nM.
For the compound `Cc1c(Oc2ccnc3ccc(S(=O)(=O)C4CC(O)C4)cc23)ccc(CC(=O)Nc2cnn(C(C)(C)C)c2)c1F` (single isomer, unassigned) [Compound 285, N-(1-(tert-butyl)-1H-pyrazol-4-yl)-2-(2-fluoro-4-((6-((-3-hydroxycyclobutyl)sulfonyl)quinolin-4-yl)oxy)-3-methylphenyl)acetamide], the IC50 is below 2.5 nM.
`Cc1c(Oc2ccnc3ccc(S(=O)(=O)C4CC(O)C4)cc23)ccc(CC(=O)Nc2cnn(C(C)(C)C)c2)c1F` (single isomer, unassigned) [Compound 286, N-(1-(tert-butyl)-1H-pyrazol-4-yl)-2-(2-fluoro-4-((6-((-3-hydroxycyclobutyl)sulfonyl)quinolin-4-yl)oxy)-3-methylphenyl)acetamide]: the IC50 was below 2.5 nM.
Then `Cc1c(Oc2ccnc3ccc(S(=O)(=O)C4CC(N)C4)cc23)ccc(CC(=O)Nc2cnn(C(C)(C)C)c2)c1F` (single isomer, unassigned) [Compound 287, 2-(4-((6-((-3-aminocyclobutyl)sulfonyl)quinolin-4-yl)oxy)-2-fluoro-3-methylphenyl)-N-(1-(tert-butyl)-1H-pyrazol-4-yl)acetamide], with below 2.5 nM; and `Cc1c(Oc2ccnc3ccc(S(=O)(=O)C4CC(N)C4)cc23)ccc(CC(=O)Nc2cnn(C(C)(C)C)c2)c1F` (single isomer, unassigned) [Compound 288, 2-(4-((6-((-3-aminocyclobutyl)sulfonyl)quinolin-4-yl)oxy)-2-fluoro-3-methylphenyl)-N-(1-(tert-butyl)-1H-pyrazol-4-yl)acetamide], with below 2.5 nM.
For the compound `Cc1cc(CC(=O)Nc2cnn(C(C)(C)C)c2)ccc1Oc1ccnc2ccc(N3C(=O)CCC3C)cc12` (single isomer, unassigned) [Compound 291, N-(1-(tert-butyl)-1H-pyrazol-4-yl)-2-(3-methyl-4-((6-(2-methyl-5-oxopyrrolidin-1-yl)quinolin-4-yl)oxy)phenyl) acetamide], the 50% inhibitory concentration (IC50) is below 2.5 nM.
Then `Cc1cc(CC(=O)Nc2cnn(C(C)(C)C)c2)ccc1Oc1ccnc2ccc(N3C(=O)CCC3C)cc12` (single isomer, unassigned) [Compound 292, N-(1-(tert-butyl)-1H-pyrazol-4-yl)-2-(3-methyl-4-((6-(2-methyl-5-oxopyrrolidin-1-yl)quinolin-4-yl)oxy)phenyl) acetamide], with below 2.5 nM.
In the case of `Cc1c(Oc2ccnc3ccc(N4C(=O)CCC4C)cc23)ccc(CC(=O)Nc2cnn(C(C)(C)C)c2)c1F` (single isomer, unassigned) [Compound 296, N-(1-(tert-butyl)-1H-pyrazol-4-yl)-2-(2-fluoro-3-methyl-4-((6-(2-methyl-5-oxopyrrolidin-1-yl)quinolin-4-yl)oxy)phenyl) acetamide], the IC50 was below 2.5 nM.
Then `Cc1c(Oc2ccnc3ccc(N4C(=O)CCC4C)cc23)ccc(CC(=O)Nc2cnn(C(C)(C)C)c2)c1F` (single isomer, unassigned) [Compound 297, N-(1-(tert-butyl)-1H-pyrazol-4-yl)-2-(2-fluoro-3-methyl-4-((6-(2-methyl-5-oxopyrrolidin-1-yl)quinolin-4-yl)oxy)phenyl) acetamide], with below 2.5 nM; and `Cc1c(Oc2ccnc3ccc(C4CCNC4=O)cc23)ccc(CC(=O)Nc2cnn(C(C)(C)C)c2)c1F` (single isomer, unassigned) [Compound 304, N-(1-(tert-butyl)-1H-pyrazol-4-yl)-2-(2-fluoro-3-methyl-4-((6-(2-oxopyrrolidin-3-yl)quinolin-4-yl)oxy)phenyl)acetamide], with below 2.5 nM.
For `Cc1c(Oc2ccnc3ccc(C4CCNC4=O)cc23)ccc(CC(=O)Nc2cnn(C(C)(C)C)c2)c1F` (single isomer, unassigned) [Compound 305, N-(1-(tert-butyl)-1H-pyrazol-4-yl)-2-(2-fluoro-3-methyl-4-((6-(2-oxopyrrolidin-3-yl)quinolin-4-yl)oxy)phenyl)acetamide], the IC50 was below 2.5 nM.
On to `Cc1cc(CC(=O)Nc2cnn(C(C)(C)C)c2)ccc1Oc1ccnc2ccc(N3CC(CO)OC3=O)cc12` (single isomer, unassigned) [Compound 317, N-(1-(tert-butyl)-1H-pyrazol-4-yl)-2-(4-((6-(5-(hydroxymethyl)-2-oxooxazolidin-3-yl)quinolin-4-yl)oxy)-3-methylphenyl) acetamide], for which the IC50 is below 2.5 nM.
Then `Cc1cc(CC(=O)Nc2cnn(C(C)(C)C)c2)ccc1Oc1ccnc2ccc(N3CC(CO)OC3=O)cc12` (single isomer, unassigned) [Compound 318, N-(1-(tert-butyl)-1H-pyrazol-4-yl)-2-(4-((6-(5-(hydroxymethyl)-2-oxooxazolidin-3-yl)quinolin-4-yl)oxy)-3-methylphenyl) acetamide], with below 2.5 nM; and `Cc1cc(CC(=O)Nc2cnn(C(C)(C)C)c2)ccc1Oc1ccnc2ccc(N3CC(CN)OC3=O)cc12` (single isomer, unassigned) [Compound 319, 2-(4-((6-(5-(aminomethyl)-2-oxooxazolidin-3-yl)quinolin-4-yl)oxy)-3-methylphenyl)-N-(1-(tert-butyl)-1H-pyrazol-4-yl)acetamide], with below 2.5 nM.
On to `Cc1cc(CC(=O)Nc2cnn(C(C)(C)C)c2)ccc1Oc1ccnc2ccc(N3CC(CN)OC3=O)cc12` (single isomer, unassigned) [Compound 320, 2-(4-((6-(5-(aminomethyl)-2-oxooxazolidin-3-yl)quinolin-4-yl)oxy)-3-methylphenyl)-N-(1-(tert-butyl)-1H-pyrazol-4-yl)acetamide], for which the IC50 was below 2.5 nM.
Consider `Cc1cc(CC(=O)Nc2cnn(C(C)(C)C)c2)ccc1Oc1ccnc2ccc([S+](C)[O-])cc12` (single isomer, unassigned) [Compound 321, N-(1-(tert-butyl)-1H-pyrazol-4-yl)-2-(3-methyl-4-((6-(methylsulfinyl)quinolin-4-yl)oxy)phenyl)acetamide], for which the IC50 was below 2.5 nM.
Regarding `Cc1cc(CC(=O)Nc2cnn(C(C)(C)C)c2)ccc1Oc1ccnc2ccc([S+](C)[O-])cc12` (single isomer, unassigned) [Compound 322, N-(1-(tert-butyl)-1H-pyrazol-4-yl)-2-(3-methyl-4-((6-(methylsulfinyl)quinolin-4-yl)oxy)phenyl)acetamide], the IC50 was below 2.5 nM.
On to `Cc1c(Oc2ccnc3ccc([S+](C)[O-])cc23)ccc(CC(=O)Nc2cnn(C(C)(C)C)c2)c1F` (single isomer, unassigned) [Compound 323, N-(1-(tert-butyl)-1H-pyrazol-4-yl)-2-(2-fluoro-3-methyl-4-((6-(methylsulfinyl)quinolin-4-yl)oxy)phenyl)acetamide], for which the IC50 is below 2.5 nM.
Then `Cc1c(Oc2ccnc3ccc([S+](C)[O-])cc23)ccc(CC(=O)Nc2cnn(C(C)(C)C)c2)c1F` (single isomer, unassigned) [Compound 324, N-(1-(tert-butyl)-1H-pyrazol-4-yl)-2-(2-fluoro-3-methyl-4-((6-(methylsulfinyl)quinolin-4-yl)oxy)phenyl)acetamide], with below 2.5 nM; and `Cc1cc(CC(=O)Nc2cnn(C(C)(C)C)c2)ccc1Oc1ccnc2ccc(N3CCC(O)C3=O)cc12` (single isomer, unassigned) [Compound 326, N-(1-(tert-butyl)-1H-pyrazol-4-yl)-2-(4-((6-(3-hydroxy-2-oxopyrrolidin-1-yl)quinolin-4-yl)oxy)-3-methylphenyl) acetamide], with below 2.5 nM.
The result for `Cc1cc(CC(=O)Nc2cnn(C(C)(C)C)c2)ccc1Oc1ccnc2ccc(N3CCC(O)C3=O)cc12` (single isomer, unassigned) [Compound 327, N-(1-(tert-butyl)-1H-pyrazol-4-yl)-2-(4-((6-(3-hydroxy-2-oxopyrrolidin-1-yl)quinolin-4-yl)oxy)-3-methylphenyl) acetamide] reads below 2.5 nM.
The result for `Cc1c(Oc2ccnc3ccc(C(=O)N4CCC(O)C4)cc23)ccc(CC(=O)Nc2cnn(C(C)(C)C)c2)c1F` (single isomer, unassigned) [Compound 351, N-(1-(tert-butyl)-1H-pyrazol-4-yl)-2-(2-fluoro-4-((6-(3-hydroxy-pyrrolidine-1-carbonyl)quinolin-4-yl)oxy)-3-methyl-phenyl) acetamide] reads below 2.5 nM.
In the case of `Cc1c(Oc2ccnc3ccc(C(=O)N4CCC(O)C4)cc23)ccc(CC(=O)Nc2cnn(C(C)(C)C)c2)c1F` (single isomer, unassigned) [Compound 352, N-(1-(tert-butyl)-1H-pyrazol-4-yl)-2-(2-fluoro-4-((6-(3-hydroxy-pyrrolidine-1-carbonyl)quinolin-4-yl)oxy)-3-methyl-phenyl) acetamide], the half-maximal inhibitory concentration (IC50) was below 2.5 nM.
